Calls of active or inactive are those of the source.

The target in assay [1] is T1, Apoptotic protease-activating factor 1 (Homo sapiens, UniProt O14727).
T1 sequence (O14727 whole entry): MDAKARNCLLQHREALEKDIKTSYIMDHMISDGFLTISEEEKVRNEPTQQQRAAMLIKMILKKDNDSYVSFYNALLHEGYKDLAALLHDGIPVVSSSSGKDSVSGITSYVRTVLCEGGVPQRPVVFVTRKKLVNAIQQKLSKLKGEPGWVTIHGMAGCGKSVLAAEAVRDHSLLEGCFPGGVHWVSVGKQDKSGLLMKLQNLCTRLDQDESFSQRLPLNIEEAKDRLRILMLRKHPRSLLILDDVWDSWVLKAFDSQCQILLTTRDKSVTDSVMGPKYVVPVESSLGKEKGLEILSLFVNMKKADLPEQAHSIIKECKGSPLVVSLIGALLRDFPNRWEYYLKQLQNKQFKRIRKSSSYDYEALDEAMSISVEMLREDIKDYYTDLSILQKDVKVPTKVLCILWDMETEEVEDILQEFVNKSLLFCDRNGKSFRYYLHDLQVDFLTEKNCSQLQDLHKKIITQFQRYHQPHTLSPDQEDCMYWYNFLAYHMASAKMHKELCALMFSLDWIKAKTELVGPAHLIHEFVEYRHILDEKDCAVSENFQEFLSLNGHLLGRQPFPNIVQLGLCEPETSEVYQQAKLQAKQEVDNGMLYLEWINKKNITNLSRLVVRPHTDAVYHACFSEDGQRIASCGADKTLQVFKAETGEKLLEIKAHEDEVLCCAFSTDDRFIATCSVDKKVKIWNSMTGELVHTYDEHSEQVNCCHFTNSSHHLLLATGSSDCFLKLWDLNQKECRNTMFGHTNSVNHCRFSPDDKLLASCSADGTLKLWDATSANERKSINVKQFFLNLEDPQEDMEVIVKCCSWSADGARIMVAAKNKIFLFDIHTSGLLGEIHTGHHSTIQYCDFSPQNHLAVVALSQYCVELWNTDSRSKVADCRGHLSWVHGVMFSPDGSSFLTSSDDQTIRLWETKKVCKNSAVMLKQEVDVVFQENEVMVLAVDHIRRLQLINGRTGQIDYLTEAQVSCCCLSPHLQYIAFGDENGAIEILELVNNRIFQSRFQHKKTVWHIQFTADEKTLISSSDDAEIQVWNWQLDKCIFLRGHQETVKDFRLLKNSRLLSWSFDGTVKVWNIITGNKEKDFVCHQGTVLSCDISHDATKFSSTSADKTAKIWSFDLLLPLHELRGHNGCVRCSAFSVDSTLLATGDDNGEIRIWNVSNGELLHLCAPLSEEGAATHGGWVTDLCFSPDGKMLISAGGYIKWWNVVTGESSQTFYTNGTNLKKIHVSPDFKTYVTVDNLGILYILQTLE
The assay is described as follows: SAR analysis of small molecule Activators of Apaf-1 in a Fluorescent assay - set 2. It counts as functional. As to conditions: read-out: EC50_Mean.

A short description of assay [2]: SAR analysis of small molecule activators of Apaf-1 using a LZ-Caspase-9/Caspase-3 Fluorescent Selectivity assay - Set 2. As to conditions: read-out: EC50_Mean. It is filed as functional.
For assay [3], the target named is Melanin-concentrating hormone receptor 1 (Homo sapiens, UniProt Q99705). The assay is described as follows: Late-stage fluorescence-based counterscreen for antagonists of the G-protein coupled receptor 7 (GPR7): cell-based dose response assay to identify antagonists of the melanin-concentrating hormone receptor 1 (MCHR1) Set 6. It is filed as functional. For orientation: A counterscreen serves to expose hits that act by an unwanted route or on another target.

In assay [4] the target is Prothrombin (Bos taurus, UniProt P00735). In words: thrombin inhibition, dose response, biochemical, fluorescence polarization, uHTS hits (AID 602369). It is filed as functional. Background: In fluorescence polarisation assays a small probe gives low polarisation when free and higher when bound to something large.
Assay [5] concerns the target 26S proteasome non-ATPase regulatory subunit 14 (Homo sapiens, UniProt O00487). In words: inhibition of proteasome subunit RPN11 – biochemical, fluorescence polarization, uHTS hits, confirmation (AID 602368). It counts as functional.
Assay [6] has as its target 72 kDa type IV collagenase (Homo sapiens, UniProt P08253). The assay is described as follows: Dose Response validation of uHTS RPN11 inhibitor hits using a MMP-2 Fluorescence assay. It is filed as functional.
Assay [7] has as its target T2, V-type proton ATPase subunit c' (Saccharomyces cerevisiae S288c, UniProt P32842).
T2 sequence (P32842 whole entry): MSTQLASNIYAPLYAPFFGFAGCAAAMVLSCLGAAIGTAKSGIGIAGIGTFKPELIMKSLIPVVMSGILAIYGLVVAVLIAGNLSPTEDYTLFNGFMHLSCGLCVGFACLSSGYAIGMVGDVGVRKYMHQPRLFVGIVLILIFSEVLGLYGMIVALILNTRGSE
The assay is described as follows: Dose Response of Small Molecules that Regulate V-ATPase Proton Transport in Yeast using pHLuorin, Powder Set1. It is filed as functional. As to conditions: read-out: EC50_MICROM.

The target in assay [8] is T2, V-type proton ATPase subunit c'. The assay is described as follows: Dose Response with BCECF Assay for V-ATPase inhibitors that increase vacuolar pH, Powder Set 1. It is filed as functional. The note with it: read-out: EC50_MICROM.
Assay [9] has the same target. In words: Dose Response of Small Molecules that Regulate V-ATPase Proton Transport in Yeast using pHLuorin, Cherry Pick 2. It is filed as functional. As to conditions: read-out: EC50_MICROM.
A short description of assay [10]: cytotoxicity toward NIH3T3 fibroblasts, dose response, counter-screen, cell-based, ATP luminescence, mouse fibroblasts (AID 2010).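 Note: cells exposed to compound for about 90 hours before reading.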 It counts as functional.
Assay [11] in a line: inhibitors of intracellular T. cruzi replication, confirmation, NIH3T3 host cells, beta-gal luminescence (AID 2044).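 Note: intracellular parasites grown in NIH/3T3 mouse fibroblasts as host cells; luminescent beta-galactosidase reporter signal from transgenic T. cruzi replicating inside host cells; inhibitors lower the luminescence signal.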 It counts as functional, cell-based.

Chain of Melanin-concentrating hormone receptor 1 (Q99705 whole entry): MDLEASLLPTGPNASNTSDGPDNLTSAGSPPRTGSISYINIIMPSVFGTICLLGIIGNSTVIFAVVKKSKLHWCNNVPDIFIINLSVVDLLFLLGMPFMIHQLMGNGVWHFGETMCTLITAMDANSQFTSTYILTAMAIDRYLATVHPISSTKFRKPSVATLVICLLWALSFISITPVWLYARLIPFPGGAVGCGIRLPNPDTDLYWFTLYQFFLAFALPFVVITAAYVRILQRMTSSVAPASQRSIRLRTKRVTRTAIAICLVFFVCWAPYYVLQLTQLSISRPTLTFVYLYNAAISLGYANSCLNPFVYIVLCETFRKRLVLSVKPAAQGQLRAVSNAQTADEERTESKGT
Chain of 26S proteasome non-ATPase regulatory subunit 14 (O00487 whole entry): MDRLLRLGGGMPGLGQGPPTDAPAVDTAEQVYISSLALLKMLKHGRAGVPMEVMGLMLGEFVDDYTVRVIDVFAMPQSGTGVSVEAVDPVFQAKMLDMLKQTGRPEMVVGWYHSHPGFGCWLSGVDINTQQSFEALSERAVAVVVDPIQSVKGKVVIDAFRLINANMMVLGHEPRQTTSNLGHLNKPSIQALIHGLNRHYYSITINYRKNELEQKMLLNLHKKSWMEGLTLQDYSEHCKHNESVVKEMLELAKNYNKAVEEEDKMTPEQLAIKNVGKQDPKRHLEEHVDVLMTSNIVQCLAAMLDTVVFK
Chain of 72 kDa type IV collagenase (P08253 whole entry): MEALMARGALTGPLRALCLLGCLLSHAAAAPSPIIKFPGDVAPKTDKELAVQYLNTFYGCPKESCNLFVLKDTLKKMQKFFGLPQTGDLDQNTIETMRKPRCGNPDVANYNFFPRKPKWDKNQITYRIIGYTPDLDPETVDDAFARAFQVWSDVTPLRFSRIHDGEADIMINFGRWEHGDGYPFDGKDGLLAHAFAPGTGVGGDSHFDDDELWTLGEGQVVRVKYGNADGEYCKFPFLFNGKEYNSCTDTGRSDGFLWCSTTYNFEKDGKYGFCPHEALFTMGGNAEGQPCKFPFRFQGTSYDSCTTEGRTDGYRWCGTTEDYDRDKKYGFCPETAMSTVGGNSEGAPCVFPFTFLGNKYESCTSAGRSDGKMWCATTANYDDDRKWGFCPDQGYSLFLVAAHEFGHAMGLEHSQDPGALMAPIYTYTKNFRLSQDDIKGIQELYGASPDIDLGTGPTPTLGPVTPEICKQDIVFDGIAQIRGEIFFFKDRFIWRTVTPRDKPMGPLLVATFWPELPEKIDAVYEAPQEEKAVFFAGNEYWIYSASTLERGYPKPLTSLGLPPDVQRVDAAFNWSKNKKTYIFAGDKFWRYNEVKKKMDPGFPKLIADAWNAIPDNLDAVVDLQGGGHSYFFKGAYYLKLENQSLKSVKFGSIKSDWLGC

In the case of `COc1ccc(OC)c(C2=NOC(C(=O)O)C2)c1` (stereo unspecified), the EC50 in [1] and in assay [2] was > 100000 nM (inactive) in each case.

Consider `COC(=O)c1ccccc1Cn1ncc(Cl)c(Oc2ccc(OC)cc2)c1=O`, for which the IC50 – broadly, the point on the concentration scale where inhibition reaches its midpoint – in assay [3] was 1160 nM (active).

For `O=[N+]([O-])c1ccc(N/N=C/c2sc(N3CCOCC3)nc2-c2ccccc2)c(S(=O)(=O)Nc2ccccc2Cl)c1`, the IC50 is 564 nM (active) in assay [4], 658 nM (active) in assay [5] and > 100000 nM (inactive) in assay [6].

With `O=C(c1ccc([N+](=O)[O-])o1)N1CCN(c2nc3c(F)cc(F)cc3s2)CC1`, the EC50 is 1930 nM (active) in assay [7]; 390 nM (active) in [8]; 8900 nM (active) in assay [9]; 22400 nM (active) in assay [10]; 466 nM (active) in assay [11].

For the origin of these results see ChEMBL document CHEMBL1201862, “PubChem BioAssay data set” (2004).
